# Reference: patent US20030181353A1, “Composition & use as analgesic, anti-inflammatory, wound healing agent, for treatment of heart conditions, assessment of heart function & tissue & cell protection & healing & reperfusion, mood disorders & symptoms & sequelae of menopause & for inducing unconsciousness, sleep & anesthesia” (priority 1998, published 2003)
# Test system: Intracellular Adenosine
# Format: in vivo, rat
compound,measurement,setting,value
"Nc1nc(=O)c2c([nH]1)NCC(CNc1ccc(C(=O)N[C@@H](CCC(=O)O)C(=O)O)cc1)N2C=O (mixture of isomers) [Follinic Acid (F.A.), folinic acid]","Adenosine levels in the heart, lung and brain","rat, in vivo, po",dramatic increase in adenosine levels
same,Effect of co-administration of folinic acid on adenosine depletion,"rats, co-administered with the depleting agent",completely abrogated adenosine depletion
same,Effect of folinic acid administered alone on adenosine levels,"rats, folinic acid alone, all organs studied",increase in adenosine levels for all organs studied
